{
  "source": "paper PMC5843908",
  "about": "“Detection of PRMT1 inhibitors with stopped flow fluorescence” (Signal Transduction and Targeted Therapy, 2018)",
  "key": {"PRMT1": {"molecular_target": "PRMT1 (Homo sapiens, UniProt Q99873)", "sequence (Q99873 29-371)": "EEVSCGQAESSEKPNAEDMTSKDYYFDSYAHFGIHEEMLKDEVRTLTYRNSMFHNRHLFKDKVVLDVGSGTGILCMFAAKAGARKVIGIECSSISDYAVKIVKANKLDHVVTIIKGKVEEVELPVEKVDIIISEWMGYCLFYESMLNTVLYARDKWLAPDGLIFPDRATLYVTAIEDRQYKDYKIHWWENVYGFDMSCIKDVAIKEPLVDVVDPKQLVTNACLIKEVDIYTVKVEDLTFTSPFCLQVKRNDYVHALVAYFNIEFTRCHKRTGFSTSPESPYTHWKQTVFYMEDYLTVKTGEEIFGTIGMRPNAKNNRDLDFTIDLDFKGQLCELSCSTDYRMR", "test": "Stopped flow fluorescence assay of PRMT1 inhibition ([PRMT1] 0.2 µM, [SAM] 3.5 µM, [H4FL] 0.4 µM);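 note: Stopped-flow traces of fluorescent H4FL peptide quenched on binding PRMT1 and restored on release, recorded 900 s, averaged over repeated drives and fit to a double-exponential model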", "type": "biochemical", "text": "To obtain the IC50 of a specific inhibitor, the relative activities of the enzyme in presence of different concentrations of the inhibitor are required (equation 1).[37] […] By adding different concentrations of the inhibitor to the reaction mixture, the relative activity of the enzyme can be obtained by normalizing K to the reaction rate without the inhibitor, and then calculate the IC50 value using equation 1. In our stopped flow fluorescence assay, the reaction rate of Phase I and Phase II can be obtained by approximating and deriving the double-exponential equation (equation 2). In Phase I, during a very short period of time (where t is small), the curve is nearly linear, and the exponential equation can be approximately described as F1 = a · (−k1) · t. Therefore, the derivation of F1 equals –k1∙a, which is the slope of Phase I. Similarly, the curve of Phase II at early stage can be approximately described as F2 = b · (−k2) · t. This derivation of F2 equals –k2∙b, which is the slope of Phase II. The slopes at various inhibitor concentrations, normalized to the slope in the absence of inhibitor, can be used to obtain the corresponding relative enzyme activity from which the potency value (IC50) of the inhibitor can be calculated with equation 1.\nIn a stopped flow fluorescence assay, the binding of H4FL to PRMT1 (or the PRMT1—cofactor complex) quenches the peptide fluorescence, while release of the peptide restores the fluorescence. […] The widths of the entrance and exit slits of the monochromator were set to 0.5 mm. An equal volume of samples from two syringes was driven into the observation cell for mixing measurements. The H4FL concentration in all experiments was 0.4 μM. […] The fluorescent signal was recorded for 900 seconds, with 10,000 data points in total. Data from four to six drives were collected and averaged for each curve.\nAfter averaging the shot data, the association time courses were fitted to a double-exponential function (equation 2) using GraphPad Prism (CA, USA). […] F is the fluorescence intensity at time t, k1, and k2 are the rate constants for Phase I and Phase II, a is the amplitude of the fluorescence change for k1, and b is the amplitude of the fluorescence change for k2. Simulation curves based on the values of a, b, k1, and k2 at fixed c = 1 were produced using Matlab. The IC50 value of inhibitors is determined by equation 1 using GraphPad Prism (CA, USA)."}, "CARM1": {"system": "CARM1", "design": "method as in PMID 24564570", "conditions": "cited from earlier work"}, "PRMT5": {"system": "PRMT5", "design": "method as in PMID 24564570", "conditions": "cited from earlier work"}, "PRMT6": {"system": "PRMT6", "design": "method as in PMID 24564570", "conditions": "cited from earlier work"}},
  "data": [
    {"smiles": "N=C(N)c1ccc(-c2ccc(-c3ccc(C(=N)N)cc3)o2)cc1", "note": "[DB75, furamidine]", "values": [
      {"measurement": "mechanism of inhibition suggested by Phase I/Phase II pattern", "setting": "PRMT1", "value": "substrate-competitive inhibitor"},
      {"measurement": "-b·k2 (slope of Phase II)", "setting": "PRMT1; [DB75] 2.5 µM", "value": "0.0008427 ± 1.61e-06", "unit": "s⁻¹"},
      {"measurement": "a (amplitude, Phase I)", "setting": "PRMT1; [DB75] 2.5 µM", "value": "0.1608 ± 3.86E-04"},
      {"measurement": "a·k1 (slope of Phase I)", "setting": "PRMT1; [DB75] 2.5 µM", "value": "0.00951 ± 4.83e-05", "unit": "s⁻¹"},
      {"measurement": "b (amplitude, Phase II)", "setting": "PRMT1; [DB75] 2.5 µM", "value": "-0.203 ± 1.66E-04"},
      {"measurement": "k1 (rate constant, Phase I)", "setting": "PRMT1; [DB75] 2.5 µM", "value": "0.05913 ± 2.65E-04", "unit": "s^-1"},
      {"measurement": "k2 (rate constant, Phase II)", "setting": "PRMT1; [DB75] 2.5 µM", "value": "0.004151 ± 7.18E-06", "unit": "s^-1"},
      {"measurement": "-b·k2 (slope of Phase II)", "setting": "PRMT1; [DB75] 5 µM", "value": "0.0005995 ± 1.19e-06", "unit": "s⁻¹"},
      {"measurement": "a (amplitude, Phase I)", "setting": "PRMT1; [DB75] 5 µM", "value": "0.1114 ± 3.10E-04"},
      {"measurement": "a·k1 (slope of Phase I)", "setting": "PRMT1; [DB75] 5 µM", "value": "0.00741 ± 4.25e-05", "unit": "s⁻¹"},
      {"measurement": "b (amplitude, Phase II)", "setting": "PRMT1; [DB75] 5 µM", "value": "-0.14 ± 1.20E-04"},
      {"measurement": "k1 (rate constant, Phase I)", "setting": "PRMT1; [DB75] 5 µM", "value": "0.06653 ± 3.34E-04", "unit": "s^-1"},
      {"measurement": "k2 (rate constant, Phase II)", "setting": "PRMT1; [DB75] 5 µM", "value": "0.004282 ± 7.68E-06", "unit": "s^-1"},
      {"measurement": "-b·k2 (slope of Phase II)", "setting": "PRMT1; [DB75] 7.5 µM", "value": "0.0005125 ± 1.42e-06", "unit": "s⁻¹"},
      {"measurement": "a (amplitude, Phase I)", "setting": "PRMT1; [DB75] 7.5 µM", "value": "0.1285 ± 3.57E-04"},
      {"measurement": "a·k1 (slope of Phase I)", "setting": "PRMT1; [DB75] 7.5 µM", "value": "0.00616 ± 3.66e-05", "unit": "s⁻¹"},
      {"measurement": "b (amplitude, Phase II)", "setting": "PRMT1; [DB75] 7.5 µM", "value": "-0.1789 ± 1.33E-04"},
      {"measurement": "k1 (rate constant, Phase I)", "setting": "PRMT1; [DB75] 7.5 µM", "value": "0.04791 ± 2.52E-04", "unit": "s^-1"},
      {"measurement": "k2 (rate constant, Phase II)", "setting": "PRMT1; [DB75] 7.5 µM", "value": "0.002865 ± 7.66E-06", "unit": "s^-1"},
      {"measurement": "-b·k2 (slope of Phase II)", "setting": "PRMT1; [DB75] 10 µM", "value": "0.0003506 ± 2.59e-06", "unit": "s⁻¹"},
      {"measurement": "a (amplitude, Phase I)", "setting": "PRMT1; [DB75] 10 µM", "value": "0.06466 ± 3.90E-04"},
      {"measurement": "a·k1 (slope of Phase I)", "setting": "PRMT1; [DB75] 10 µM", "value": "0.0024 ± 3.23e-05", "unit": "s⁻¹"},
      {"measurement": "b (amplitude, Phase II)", "setting": "PRMT1; [DB75] 10 µM", "value": "-0.07628 ± 3.14E-04"},
      {"measurement": "k1 (rate constant, Phase I)", "setting": "PRMT1; [DB75] 10 µM", "value": "0.03706 ± 4.47E-04", "unit": "s^-1"},
      {"measurement": "k2 (rate constant, Phase II)", "setting": "PRMT1; [DB75] 10 µM", "value": "0.004596 ± 2.82E-05", "unit": "s^-1"},
      {"measurement": "-b·k2 (slope of Phase II)", "setting": "PRMT1; [DB75] 20 µM", "value": "0.00011 ± 4.39e-06", "unit": "s⁻¹"},
      {"measurement": "a (amplitude, Phase I)", "setting": "PRMT1; [DB75] 20 µM", "value": "0.02855 ± 5.16E-04"},
      {"measurement": "a·k1 (slope of Phase I)", "setting": "PRMT1; [DB75] 20 µM", "value": "0.000854 ± 2.84e-05", "unit": "s⁻¹"},
      {"measurement": "b (amplitude, Phase II)", "setting": "PRMT1; [DB75] 20 µM", "value": "-0.01837 ± 5.38E-04"},
      {"measurement": "k1 (rate constant, Phase I)", "setting": "PRMT1; [DB75] 20 µM", "value": "0.02992 ± 8.36E-04", "unit": "s^-1"},
      {"measurement": "k2 (rate constant, Phase II)", "setting": "PRMT1; [DB75] 20 µM", "value": "0.005985 ± 1.62E-04", "unit": "s^-1"},
      {"measurement": "-b·k2 (slope of Phase II)", "setting": "PRMT1; [DB75] 40 µM", "value": 0, "unit": "s⁻¹"},
      {"measurement": "a (amplitude, Phase I)", "setting": "PRMT1; [DB75] 40 µM", "value": "0.009937 ± 5.73E-04"},
      {"measurement": "a·k1 (slope of Phase I)", "setting": "PRMT1; [DB75] 40 µM", "value": "0.00133 ± 0.000128", "unit": "s⁻¹"},
      {"measurement": "k1 (rate constant, Phase I)", "setting": "PRMT1; [DB75] 40 µM", "value": "0.1335 ± 1.03E-02", "unit": "s^-1"},
      {"measurement": "inhibition of Phase II", "setting": "PRMT1; [DB75] above 10 µM", "value": "almost fully inhibited"},
      {"measurement": "inhibition selectivity for PRMT1 over CARM1", "setting": "CARM1", "value": 42, "unit": "fold"},
      {"measurement": "inhibition selectivity for PRMT1 over PRMT5", "setting": "PRMT5", "value": "more than 15 fold"},
      {"measurement": "inhibition selectivity for PRMT1 over PRMT6", "setting": "PRMT6", "value": 30, "unit": "fold"}
    ]}
  ]
}
